Data as given in the NIST ThermoML archive (doi:10.1016/j.tca.2004.08.013).

Assay: xn = mol fraction of the nth substance listed
Conditions: 101.3 kPa, Liquid

CCCCN [1-butanamine] + ClC(Cl)(Cl)Cl
Conditions | mass density, 303.15 K [kg/m3] | mass density, 313.15 K [kg/m3] | viscosity, 303.15 K [mPa·s] | viscosity, 313.15 K [mPa·s]
x1 = 0.0099 | 1566.74 | 1547.13 | 0.855 | 0.763
x1 = 0.0183 | 1559.88 | 1540.41 | 0.858 | 0.765
x1 = 0.0287 | 1551.36 | 1532.01 | 0.861 | 0.768
x1 = 0.0386 | 1543.06 | 1523.9 | 0.862 | 0.77
x1 = 0.0477 | 1535.31 | 1516.18 | 0.862 | 0.773
x1 = 0.0581 | 1526.57 | 1507.58 | 0.864 | 0.776
x1 = 0.0675 | 1518.67 | 1499.84 | 0.866 | 0.78
x1 = 0.076 | 1511.52 | 1492.72 | 0.869 | 0.784
x1 = 0.0856 | 1503.49 | 1484.69 | 0.871 | 0.786

CCCCN [1-butanamine] + ClC(Cl)Cl
Conditions | mass density, 303.15 K [kg/m3] | mass density, 313.15 K [kg/m3] | viscosity, 303.15 K [mPa·s] | viscosity, 313.15 K [mPa·s]
x1 = 0.0091 | 1462.78 | 1440.74 | 0.528 | 0.478
x1 = 0.0196 | 1453.53 | 1431.89 | 0.536 | 0.485
x1 = 0.0289 | 1445.49 | 1423.81 | 0.544 | 0.493
x1 = 0.0409 | 1435.01 | 1413.72 | 0.55 | 0.499
x1 = 0.0483 | 1428.52 | 1407.41 | 0.556 | 0.505
x1 = 0.0578 | 1420.29 | 1399.24 | 0.562 | 0.511
x1 = 0.0676 | 1411.7 | 1390.72 | 0.566 | 0.517
x1 = 0.0775 | 1403.16 | 1382.3 | 0.569 | 0.521
x1 = 0.0848 | – | – | 0.573 | 0.525

CCCCNCCCC [dibutylamine] + ClC(Cl)(Cl)Cl
Conditions | mass density, 303.15 K [kg/m3] | mass density, 313.15 K [kg/m3] | viscosity, 303.15 K [mPa·s] | viscosity, 313.15 K [mPa·s]
x1 = 0.0105 | 1560.01 | 1540.58 | 0.852 | 0.761
x1 = 0.0201 | 1546.59 | 1527.31 | 0.851 | 0.76
x1 = 0.0298 | 1533.23 | 1514.26 | 0.85 | 0.761
x1 = 0.0396 | 1519.86 | 1501.14 | 0.85 | 0.76
x1 = 0.049 | 1507.12 | 1488.59 | 0.849 | 0.759
x1 = 0.0583 | 1494.77 | 1476.4 | 0.847 | 0.757
x1 = 0.0696 | 1480 | 1461.9 | 0.846 | 0.755
x1 = 0.0789 | 1467.95 | 1450.12 | 0.845 | 0.754
x1 = 0.089 | 1455.15 | 1437.55 | 0.845 | 0.752

CCCCNCCCC [dibutylamine] + ClC(Cl)Cl
Conditions | mass density, 303.15 K [kg/m3] | mass density, 313.15 K [kg/m3] | viscosity, 303.15 K [mPa·s] | viscosity, 313.15 K [mPa·s]
x1 = 0.0103 | 1455.46 | 1433.69 | 0.53 | 0.48
x1 = 0.0197 | 1441.84 | 1420.36 | 0.54 | 0.489
x1 = 0.0294 | 1428.11 | 1406.9 | 0.552 | 0.493
x1 = 0.0381 | 1415.97 | 1394.99 | 0.56 | 0.502
x1 = 0.0482 | 1401.96 | 1381.38 | 0.572 | 0.51
x1 = 0.0593 | 1387.11 | 1366.85 | 0.584 | 0.516
x1 = 0.0684 | 1375.09 | 1355.19 | 0.599 | 0.528
x1 = 0.0788 | 1361.57 | 1342.11 | 0.612 | 0.535
x1 = 0.0876 | 1350.35 | 1331.13 | 0.624 | 0.542

CCCNCCC [dipropylamine] + ClC(Cl)Cl
Conditions | mass density, 303.15 K [kg/m3] | mass density, 313.15 K [kg/m3] | viscosity, 303.15 K [mPa·s] | viscosity, 313.15 K [mPa·s]
x1 = 0.0105 | 1457.85 | 1435.95 | 0.525 | 0.473
x1 = 0.0217 | 1444.32 | 1422.68 | 0.531 | 0.476
x1 = 0.0311 | 1433.19 | 1411.78 | 0.535 | 0.48
x1 = 0.0411 | 1421.35 | 1400.29 | 0.539 | 0.483
x1 = 0.051 | 1409.85 | 1389.04 | 0.544 | 0.486
x1 = 0.0608 | 1398.52 | 1378.03 | 0.548 | 0.488
x1 = 0.0708 | 1387.22 | 1366.94 | 0.552 | 0.492
x1 = 0.0808 | 1376 | 1356.01 | 0.558 | 0.494
x1 = 0.0914 | 1364.32 | 1344.6 | 0.561 | 0.497

CCCN [propan-1-amine] + ClC(Cl)(Cl)Cl
Conditions | mass density, 303.15 K [kg/m3] | mass density, 313.15 K [kg/m3] | viscosity, 303.15 K [mPa·s] | viscosity, 313.15 K [mPa·s]
x1 = 0.0071 | 1569.84 | 1550.16 | 0.859 | 0.761
x1 = 0.0184 | 1561.86 | 1542.3 | 0.866 | 0.763
x1 = 0.0285 | 1554.57 | 1535.07 | 0.873 | 0.764
x1 = 0.0386 | 1547.37 | 1527.92 | 0.876 | 0.765
x1 = 0.0479 | 1540.78 | 1521.37 | 0.88 | 0.768
x1 = 0.0574 | 1533.92 | 1514.52 | 0.885 | 0.77
x1 = 0.0661 | 1527.48 | 1508.11 | 0.885 | 0.772
x1 = 0.0748 | 1521.24 | 1501.94 | 0.888 | 0.774
x1 = 0.0841 | 1514.3 | 1495.14 | 0.892 | 0.775
